The record followed here is PubChem BioAssay (NCI).

Test systems include SK-OV-3 ovarian; SW-620 colon; SNB-19 CNS; OVCAR-5 ovarian; MOLT-4 leukemia; SK-MEL-28 melanoma; MALME-3M melanoma; NCI-H23 lung; TK-10 renal; OVCAR-3 ovarian.
Holding throughout (experiment): inhibition of tumour cell growth, NCI panel, 48 h

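Cultured in 96-well plates, cells were exposed to test compound for 48 hours across five concentrations. The concentration for 50% growth inhibition is given as GI50. TGI marks complete inhibition of growth.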

For `COc1ccc(NC(=O)c2ccc(C(F)(F)F)nc2Nc2ccc(Cl)cc2C)cc1Cl`, the GI50 was 4.67 µM with SK-OV-3 ovarian; 4090 nM in the assay with SW-620 colon; 5450 nM with SNB-19 CNS; 9620 nM with OVCAR-5 ovarian; 1560 nM in the assay with MOLT-4 leukemia; 5200 nM in the assay on SK-MEL-28 melanoma. Besides, the GI50 with MALME-3M melanoma is 15.7 µM; in the assay with NCI-H23 lung, 3090 nM; in the assay with TK-10 renal, 17.3 µM; in the assay on OVCAR-3 ovarian, 3150 nM. In addition, the TGI is 18.6 µM with SK-OV-3 ovarian; 14.7 µM with SW-620 colon; 19.7 µM in the assay on SNB-19 CNS; 25.4 µM in the assay on OVCAR-5 ovarian; 4.93 µM in the assay with MOLT-4 leukemia; 16.9 µM in the assay on SK-MEL-28 melanoma. Moreover, the TGI in the assay with MALME-3M melanoma is 40.1 µM; in the assay on NCI-H23 lung, 15.1 µM; with TK-10 renal, 41.6 µM; with OVCAR-3 ovarian, 16.2 µM.

As for `Cc1ccccc1SC(/C=C/NNC1=NC(c2ccccc2)C(c2ccccc2)=NN1)c1ccccc1` (stereo not given), the TGI in the assay on SK-OV-3 ovarian was 45.3 µM; with SW-620 colon, greater than 100 µM; in the assay with SNB-19 CNS, greater than 100 µM; with OVCAR-5 ovarian, greater than 100 µM; in the assay on MOLT-4 leukemia, greater than 100 µM; in the assay on SK-MEL-28 melanoma, 43 µM. Moreover, the TGI with MALME-3M melanoma turned out to be 75.1 µM; in the assay with NCI-H23 lung, 50.2 µM; in the assay on TK-10 renal it was 43.2 µM; with OVCAR-3 ovarian, 31.7 µM.

For the compound `Clc1ccc(-c2nnc(-c3nn(-c4ccccc4)c4nc5ccccc5nc34)o2)cc1`, the TGI was greater than 100 µM with SK-OV-3 ovarian; greater than 100 µM in the assay with SW-620 colon; greater than 100 µM in the assay with SNB-19 CNS; greater than 100 µM with OVCAR-5 ovarian; 81.6 µM in the assay with MOLT-4 leukemia; greater than 100 µM with SK-MEL-28 melanoma. Besides, the TGI in the assay with MALME-3M melanoma, in the assay on NCI-H23 lung, with TK-10 renal and with OVCAR-3 ovarian was greater than 100 µM in each case.

Take `O=C1NN(C(=O)c2ccccc2)C(c2ccc(Cl)c(Cl)c2)=C/C1=C\c1ccccc1[N+](=O)[O-]`: the GI50 in the assay on SK-OV-3 ovarian is 4 µM; in the assay with SW-620 colon it was 2270 nM; with SNB-19 CNS it was 339 nM; with OVCAR-5 ovarian, 1960 nM; in the assay with MOLT-4 leukemia, 2040 nM; in the assay with SK-MEL-28 melanoma, 2720 nM. Moreover, the GI50 in the assay on MALME-3M melanoma is 4.53 µM; with NCI-H23 lung, 1040 nM; in the assay on TK-10 renal it was 4.26 µM; in the assay with OVCAR-3 ovarian, 2400 nM. The TGI in the assay with SK-OV-3 ovarian, in the assay with SW-620 colon, with SNB-19 CNS, with OVCAR-5 ovarian, with MOLT-4 leukemia and in the assay with SK-MEL-28 melanoma was greater than 6.75 µM throughout. The TGI with MALME-3M melanoma is greater than 6.75 µM; in the assay on NCI-H23 lung it was 6.5 µM; in the assay with TK-10 renal it was greater than 6.75 µM; with OVCAR-3 ovarian, greater than 6.75 µM.

In the case of `CCCCN(C)CC(C(C)=O)C(c1ccccc1)c1c(O)c2ccccc2oc1=O` (stereo not given), the TGI in the assay on SK-OV-3 ovarian, with SW-620 colon, with SNB-19 CNS, in the assay with OVCAR-5 ovarian, in the assay with MOLT-4 leukemia and in the assay with SK-MEL-28 melanoma was greater than 100 µM in each case. Moreover, the TGI in the assay on MALME-3M melanoma, in the assay with NCI-H23 lung, in the assay on TK-10 renal and in the assay with OVCAR-3 ovarian was greater than 100 µM in each case.

`CC(C)(C)c1cc[n+](C[n+]2ccc(C(C)(C)C)cc2)cc1`: the TGI in the assay with SK-OV-3 ovarian, with SW-620 colon, in the assay with SNB-19 CNS, with OVCAR-5 ovarian, in the assay on MOLT-4 leukemia and in the assay with SK-MEL-28 melanoma was greater than 100 µM throughout. In addition, the TGI in the assay on MALME-3M melanoma, in the assay on NCI-H23 lung, in the assay on TK-10 renal and with OVCAR-3 ovarian was greater than 100 µM throughout.

On to `Oc1cccc2ccc(SSc3ccc4cccc(O)c4n3)nc12`, for which the TGI is 31.7 µM in the assay with SK-OV-3 ovarian; 96.4 µM with SW-620 colon; greater than 100 µM in the assay on SNB-19 CNS; 41.4 µM in the assay with OVCAR-5 ovarian; greater than 100 µM with MOLT-4 leukemia; 41.3 µM in the assay on SK-MEL-28 melanoma. The TGI in the assay with MALME-3M melanoma is 30 µM; in the assay with NCI-H23 lung it was 31.2 µM; in the assay with TK-10 renal, 41.3 µM; with OVCAR-3 ovarian it was 34.7 µM.

As to `O=c1cccccc1O`, the TGI in the assay with SK-OV-3 ovarian, in the assay on SW-620 colon, in the assay with SNB-19 CNS, in the assay with OVCAR-5 ovarian, in the assay with MOLT-4 leukemia and with SK-MEL-28 melanoma was greater than 100 µM each time. Moreover, the TGI in the assay with MALME-3M melanoma, with NCI-H23 lung, in the assay with TK-10 renal and in the assay with OVCAR-3 ovarian was greater than 100 µM each time.

With `CC(C)(C)OC(=O)NC(Cc1ccccc1)C(=S)N1CCCC1` (stereo not given), the TGI with SK-OV-3 ovarian, in the assay with SW-620 colon, with SNB-19 CNS, in the assay with OVCAR-5 ovarian, with MOLT-4 leukemia and with SK-MEL-28 melanoma was greater than 100 µM in each case. Besides, the TGI in the assay with MALME-3M melanoma, in the assay on NCI-H23 lung, in the assay with TK-10 renal and in the assay with OVCAR-3 ovarian was greater than 100 µM in each case.

Consider `C/C(=N\NC(=O)c1ccccc1O)c1c(O)cc(C)oc1=O`, for which the TGI with SK-OV-3 ovarian is 86.7 µM; in the assay on SW-620 colon, greater than 100 µM; in the assay on SNB-19 CNS it was greater than 100 µM; with OVCAR-5 ovarian, greater than 100 µM; in the assay with MOLT-4 leukemia it was greater than 100 µM; with SK-MEL-28 melanoma, greater than 100 µM. Besides, the TGI in the assay with MALME-3M melanoma, in the assay with NCI-H23 lung, with TK-10 renal and in the assay with OVCAR-3 ovarian was greater than 100 µM in each case.

Turning to `COC(=O)[C@@H](C)C[C@H](Cc1ccc(F)cc1)NC(=O)c1csc([C@@H](C[C@H](C(C)C)N(C)C(=O)[C@@H](NC(=O)[C@H]2CCCCN2C)C2CC2)OC(C)=O)n1`, the GI50 is 5.39 µM with SK-OV-3 ovarian; 129 nM with SW-620 colon; 164 nM in the assay with SNB-19 CNS; 1070 nM in the assay on OVCAR-5 ovarian; 338 nM in the assay on MOLT-4 leukemia; 1050 nM with SK-MEL-28 melanoma. Further, the GI50 in the assay with MALME-3M melanoma was 0.569 µM; in the assay on NCI-H23 lung it was 1140 nM; in the assay with TK-10 renal, greater than 13.8 µM; in the assay with OVCAR-3 ovarian, 72.3 nM. The TGI in the assay on SK-OV-3 ovarian, in the assay with SW-620 colon, in the assay with SNB-19 CNS, in the assay with OVCAR-5 ovarian, with MOLT-4 leukemia and with SK-MEL-28 melanoma was greater than 25 µM throughout. Moreover, the TGI with MALME-3M melanoma was greater than 25 µM; in the assay with NCI-H23 lung it was greater than 25 µM; in the assay on TK-10 renal, greater than 25 µM; in the assay with OVCAR-3 ovarian, 0.633 µM.
